B1: IL-12: interleukin-12, cytokine (signal 3) (protein, UniProt P43431 23-215; P43432 23-335, looked up)
Interleukin-12 subunit alpha: RVIPVSGPARCLSQSRNLLKTTDDMVKTAREKLKHYSCTAEDIDHEDITRDQTSTLKTCLPLELHKNESCLATRETSSTTRGSCLPPQKTSLMMTLCLGSIYEDLKMYQTEFQAINAALQNHNHQQIILDKGMLVAIDELMQSLNHNGETLRQKPPVGEADPYRVKMKLCILLHAFSTRVVTINRVMGYLSSA
Interleukin-12 subunit beta: MWELEKDVYVVEVDWTPDAPGETVNLTCDTPEEDDITWTSDQRHGVIGSGKTLTITVKEFLDAGQYTCHKGGETLSHSHLLLHKKENGIWSTEILKNFKNKTFLKCEAPNYSGRFTCSWLVQRNMDLKFNIKSSSSSPDSRAVTCGMASLSAEKVTLDQRDYEKYSVSCQEDVTCPTAEETLPIELALEARQQNKYENYSTSFFIRDIIKPDPPKNLQMKPLKNSQVEVSWEYPDSWSTPHSYFSLKFFVRIQRKKEKMKETEEGCNQKGAFLVEKTSTEVQCKGGNVCVQAQDRYYNSSCSKWACVPCRVRS

Tests used:
T-bet = T-bet mRNA and protein expression in OT-I cells; format: cell-based, mouse
Procedure: FIG. 4. IL-12-Enhanced mTOR Phosphorylation Is Essential for T-bet-Determined Type I Effector Maturation of CD8^+ T Cells. (A-C) OT-I cells stimulated with Ag+B7.1 (±) IL-12 and rapamycin were evaluated for (A) mRNA for T-bet at the indicated time points by RT-PCR, (B) T-bet protein expression at the indicated time-points by ICS, and (C) T-bet protein expression by ICS before and after antigen recall. **p<0.0035; ***p<0.0005. (D) WT and Tbx21^−1− OT-I cells were stimulated with Ag+B7.1 (±) IL-12 and evaluated for IFN-γ production at the primary and secondary phase. ***p<0.0001. (E and F) OT-I cells stimulated with Ag+B7.1 (±) IL-12 and rapamycin were transduced with T-bet-ER retroviral vector (±) 4-HT (10 nM) and evaluated by ICS for (E) T-bet protein expression by ICS and (F) IFN-γ at secondary phase (168 hr). (G and H) OT-I cells stimulated with Ag+B7.1 (±) insulin (1 U/ml) and rapamycin were evaluated by ICS for (G) S6K phosphorylation at 48 hr and (H) T-bet expression at 72 hr. Experiments shown are representative of at least three (A, B, D, E, and F) and two (C, G, and H) independent experiments with similar outcomes. (Data are presented as mean±SEM).
Retroviral Transduction and T-Bet Induction. T-bet-ER RV (Estrogen Responsive Retro Viral Vector) was cotransfected into Platinum-E cells together with the retroviral packaging vector pCL-Eco using LipoD293 DNA in vitro transfection reagent (SignaGen Laboratories) following the manufacturer's instructions. The medium was replaced the following day, and retroviral supernatant was collected 3 days after transfection. For transduction, naive OT-I cells stimulated for 24 hr, were suspended in retroviral supernatant containing polybrene (8 μg/ml; Sigma-Aldrich), and were spin-transduced at 2200 rpm for 90 min at 30° C. After spin-transduction, cells were cultured in fresh medium containing the same polarizing milieu as before, along with the addition of 4-HT (10 nM). At the end of 72 hr after initial stimulation, cells were washed thrice and maintained in the absence of any stimulation but in the presence of 4-HT and IL-7 (10 ng/ml).
Because the sustained expression of T-bet is necessary and sufficient for imprinting type I effector cell fate (Matsuda et al., 2007) and mTOR inhibition reversed IL-12 imprinted type I effector maturation in OT-I cells (FIG. 3), we next sought to determine whether rapamycin treatment affects T-bet expression in OT-I cells by performing kinetic analysis of T-bet mRNA expression (FIG. 4A). […] Moreover, inhibition of mTOR activity at 12 hr was also able to achieve loss in T-bet expression, similar to the observed loss in type I effector maturation (FIG. 3E).

mTOR = target: T1, mTOR (Mus musculus, UniProt P26883+Q9JLN9); experiment: mTOR activity (mTOR, S6K and S6 phosphorylation by ICS) in stimulated OT-I cells; format: cell-based
T1 construct: endogenous in cells; host or cells: naive OT-I CD8+ T cells (TCR transgenic Rag2-/- mice) stimulated with Ag+B7.1 +/- IL-12
Procedure: FIG. 1. […] (A and B) OT-I cells stimulated with BOK (Ag+B7.1) (±) IL-12 were evaluated for (A) IFN-γ by ICS and (B) cytolytic activity (primary, 72 hr poststimulation; secondary, 24 hr postsecondary stimulation); ***p<0.0002. (C-E) OT-I cells stimulated with antigen (Ag) (the antigen is a peptide consisting of Ser Ile Ile followed by Asn Phe Glu which are followed by Lys and Lue (OVAp), used at 10 nM) plus B7.1 (100 μg/ml)(Ag+B7.1)(±) IL-12 (2 ng/ml) were evaluated by ICS at the indicated time points for (C) phosphorylated mTOR, (D) phosphorylated S6K, and (E) phosphorylated ribosomal S6. For mTOR inhibition, rapamycin (20 ng/ml) was added 30 min prior to addition of antigen, cytokine Data are representative of at least three independent experiments with similar outcomes. (Data are presented as mean±SEM.)
Stimulation of OT-1 Cells. Naive OT-I cells were stimulated with latex microspheres expressing H-2K^b/ovalbumin antigen and B7.1 according to known techniques. Naive OT-II cells were stimulated with anti-CD3-/anti-CD28-coated latex beads. In some experiments, the cell line derived from embryonic fibroblasts, namely, BOK (MEC.B7.SigOVA: expressing H-2K^b, OVAp and B7.1, were used as antigen-presenting cells to stimulate naive OT-I cells according to known techniques.
Although the kinase mTOR has been implicated as an integrator of various extracellular signals and a sensor for internal energy levels for determination of cell fate, the role for mTOR in integrating instructions that program naive CD8^+ T cells for type I effector differentiation is unclear. First, we tested the ability of Ag and B7.1 (Ag+B7.1) in the presence or absence of IL-12 to activate mTOR in OT-I cells at various time points after stimulation. Stimulation of naive OT-I cells with Ag+B7.1 induced mTOR phosphorylation (activation) by 2 hr, which was maximal at 12 hr and barely detectable by 48 hr (FIG. 1C). Remarkably, IL-12 addition enhanced Ag+B7.1-induced mTOR phosphorylation at 2 hr, which was maintained at 48 hr after stimulation (FIG. 1C). […] To verify that the induction of mTOR phosphorylation also led to its kinase activity, we monitored the kinetics of p70 S6K phosphorylation (Ser 371), a direct target of mTOR kinase activity. Although both Ag+B7.1 and Ag+B7.1 plus IL-12 induced similar amounts of S6K phosphorylation at 12 hr (maximal), the presence of IL-12 was able to sustain the S6K phosphorylation up to 48 hr (FIG. 10), in correlation with mTOR phosphorylation (FIG. 1C). […] The Ag+B7.1±IL-12 stimulation-induced S6K and S6 phosphorylation in OT-I cells was blocked by rapamycin (specific inhibitor of mTOR complex-1) (FIGS. 1D and 1E), thus confirming the ability of instructions to activate mTOR and its kinase activity in OT-I cells. […]

[1] = IFN-α, Ag+B7.1-stimulated OT-I cells

Molecule | T-bet expression (T-bet; [1]) | mTOR activity (mTOR; [1]) | Ag+B7.1-induced T-bet expression (T-bet; IL-12 addition, 24-96 hr) | mTOR phosphorylation (mTOR; IL-12 (2 ng/ml) added to Ag+B7.1 stimulation, 2-48 hr)
IFN-α | unable to enhance | unable to enhance |  | 
B1 |  |  | enhanced and sustained | enhances and sustains

Source: patent publication US20100196311A1, “METHODS AND COMPOSITIONS CONTAINING mTOR INHIBITORS FOR ENHANCING IMMUNE RESPONSES” (priority 2009, published 2010)
